Laboratory results: patent publication US11370798B2 (Vertex Pharmaceuticals Incorporated, priority 2012, dated 2022)

The molecules below were run on HCT116 colorectal cancer cells (assay: Cisplatin sensitization assay (96 h cell viability MTS)). Conditions: compound and Cisplatin added simultaneously, Cisplatin sensitization value.
Type: cell-based
Summary of the method: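 Viability read by MTS (1 h at 37° C) after 96 h co-exposure at 37° C, 5% CO2. Test compound and cisplatin were dosed simultaneously in a full concentration matrix, each 2-fold serially diluted from 10 μM final; sensitization values binned in μM.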
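Further: Test-compound concentration that lowers the Cisplatin IC50 by a set fold.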

Compound | Cisplatin Sensitization Assay
COc1cc(Cl)ncc1NC(=O)c1c(N)nn2cc(CC#N)cnc12 [I-O-27, 2-amino-N-(6-chloro-4-methoxypyridin-3-yl)-6-(cyanomethyl)pyrazolo[1,5-a]pyrimidine-3-carboxamide] | ++ (Cisplatin sensitization value>0.02 μM but <0.2 μM)
Nc1nn2cc(F)cnc2c1C(=O)Nc1cnccc1N1CCN([C@@H]2CCOC2)CC1 [I-N-10, (R)-2-amino-6-fluoro-N-(4-(4-(tetrahydrofuran-3-yl)piperazin-1-yl)pyridin-3-yl)pyrazolo[1,5-a]pyrimidine-3-carboxamide] | ++ (Cisplatin sensitization value>0.02 μM but <0.2 μM)
Nc1nn2cc(F)cnc2c1C(=O)Nc1cncc(F)c1N1CCN(C2CCOC2)CC1 (stereo not drawn) [I-N-122, 2-amino-6-fluoro-N-(5-fluoro-4-(4-(tetrahydrofuran-3-yl)piperazin-1-yl)pyridin-3-yl)pyrazolo[1,5-a]pyrimidine-3-carboxamide] | ++ (Cisplatin sensitization value>0.02 μM but <0.2 μM)
CN1CCN(C(=O)C2CCN(c3c(F)cncc3NC(=O)c3c(N)nn4cc(F)cnc34)CC2)C2CC21 (stereo not drawn) [I-G-65, 2-amino-6-fluoro-N-(5-fluoro-4-(4-(5-methyl-2,5-diazabicyclo[4.1.0]heptane-2-carbonyl)piperidin-1-yl)pyridin-3-yl)pyrazolo[1,5-a]pyrimidine-3-carboxamide] | +++ (Cisplatin sensitization value of <0.02 μM)
Nc1nn2cc(F)cnc2c1C(=O)Nc1cncc(F)c1N1CCC(C(=O)N2CCN(C3CCC3)CC2)CC1 [I-G-35, 2-amino-N-(4-(4-(4-cyclobutylpiperazine-1-carbonyl)piperidin-1-yl)-5-fluoropyridin-3-yl)-6-fluoropyrazolo[1,5-a]pyrimidine-3-carboxamide] | +++ (Cisplatin sensitization value of <0.02 μM)
CN1CCC(NC(=O)C2CCN(c3c(F)cncc3NC(=O)c3c(N)nn4cc(F)cnc34)CC2)CC1 [I-G-20, 2-amino-6-fluoro-N-(5-fluoro-4-(4-((1-methylpiperidin-4-yl)carbamoyl)piperidin-1-yl)pyridin-3-yl)pyrazolo[1,5-a]pyrimidine-3-carboxamide] | + (Cisplatin sensitization value>0.2 μM but <5 μM)
